According to article PMC10414684, “Novel integrated computational AMP discovery approaches highlight diversity in the helminth AMP repertoire” (PLOS Pathogens, 2023):
Values after ≈ are worked out from the molar mass of the structure shown. Structures can show the parent of a compound that is named as a salt. Where two headings read alike, the source gives them in different places. No end group written: not given here.

Key:
E. coli K12 = assay: Minimum inhibitory concentration, microbroth dilution; format: cell-based, Escherichia coli; conditions: 5x10^5 CFU/ml, 37°C, 18–24 h, visible growth; for MIC E. coli K12 (-): peptides 512–0.25μg/ml, >70% purity (Cecropin P1 >95%), Ciprofloxacin 32–0.02μg/ml; for MIC: read-out: MIC E. coli K12 (-), μM in brackets
Method: (§1) Prioritised helminth AMP-LPs were synthesised at >70% purity (Genosphere Biotechnologies). […] Peptides and control antibiotics [Ciprofloxacin (for gram-negative species; Sigma-Aldrich) and Vancomycin hydrochloride (for gram-positive species; Sigma-Aldrich)] were dissolved in sterile ultrapure water at a concentration of 5.12mg/ml. Minimum inhibitory concentrations (MICs) were determined for gram-positive and gram-negative bacterial isolates (see Table 3 for species) using microbroth dilution assays as described previously. Briefly, a single colony from each bacterial species was inoculated in cation-adjusted Mueller Hinton Broth (MHB) and grown for 18–24 hours at 37°C with shaking (225rpm) before being adjusted to a final bacterial density of 5x10^5 colony forming units (CFU) per ml. Peptides and Vancomycin hydrochloride were diluted using sterile MHB in sterile U-bottom 96 well polypropylene microplates (Greiner Bio One, UK) to give a concentration gradient ranging from 512–0.25μg/ml. Ciprofloxacin was further diluted in sterile MHB to give a concentration gradient ranging from 32–0.02μg/ml. Microplates were incubated at 37°C for 18–24 hours. Plates were assessed for visible growth and the MIC was defined as the lowest concentration of peptide or antibiotic that inhibited visible growth of a bacterial culture after an 18–24-hour incubation. MIC data were validated by positive and negative control antibiotic MIC data for each bacterial isolate.

A. baumannii DSM 30007 = assay: as above; format: cell-based, Acinetobacter baumannii; conditions: 5x10^5 CFU/ml, 37°C, 18–24 h, visible growth; for MIC A. baumannii DSM 30007 (-): peptides 512–0.25μg/ml, >70% purity (Cecropin P1 >95%), Ciprofloxacin 32–0.02μg/ml; for MIC: read-out: MIC A. baumannii DSM 30007 (-), μM in brackets
Method: as §1

E. faecalis JH2-2 = assay: microbe, parasite or virus in culture; format: cell-based, Enterococcus faecalis
Method: as §1

S. aureus EMRSA-15 = assay: microbe, parasite or virus in culture; format: cell-based, Staphylococcus aureus
Method: as §1

S. aureus RN4220 = assay: microbe, parasite or virus in culture; format: cell-based, Staphylococcus aureus; conditions: for MIC S. aureus RN4220 (+), μM in brackets / MIC S. aureus RN4220 (+): Methicillin-Sensitive, microbroth dilution, cation-adjusted MHB, 5x10^5 CFU/ml, 37°C, 18–24 h, visible growth; for MIC S. aureus RN4220 (+): peptides and Vancomycin hydrochloride 512–0.25μg/ml, peptides >70% purity (Cecropin P1 >95%)
Method: as §1

P. aeruginosa PA01 = assay: Minimum inhibitory concentration, microbroth dilution; format: cell-based, Pseudomonas aeruginosa; conditions: 5x10^5 CFU/ml, 37°C, 18–24 h, visible growth; for MIC P. aeruginosa PA01 (-): peptides 512–0.25μg/ml, >70% purity (Cecropin P1 >95%), Ciprofloxacin 32–0.02μg/ml; for MIC: read-out: MIC P. aeruginosa PA01 (-), μM in brackets
Method: as §1

[1] = microbroth dilution, cation-adjusted MHB, 5x10^5 CFU/ml, 37°C, 18–24 h, visible growth
[2] = microbroth dilution, cation-adjusted MHB, 5x10^5 CFU/ml, 37°C, 18–24 h, visible growth, peptides and Vancomycin hydrochloride 512–0.25μg/ml, peptides >70% purity (Cecropin P1 >95%)
[3] = Methicillin-resistant, microbroth dilution, cation-adjusted MHB, 5x10^5 CFU/ml, 37°C, 18–24 h, visible growth
[4] = Methicillin-resistant, microbroth dilution, cation-adjusted MHB, 5x10^5 CFU/ml, 37°C, 18–24 h, visible growth, peptides and Vancomycin hydrochloride 512–0.25μg/ml, peptides >70% purity (Cecropin P1 >95%)

Compound | MIC E. coli K12 (-) (E. coli K12; cation-adjusted MHB) | MIC A. baumannii DSM 30007 (-) (A. baumannii DSM 30007; cation-adjusted MHB) | MIC E. faecalis JH2-2 (+) (E. faecalis JH2-2; [2]) | MIC S. aureus EMRSA-15 (+) (S. aureus EMRSA-15; [4]) | MIC S. aureus RN4220 (+) (S. aureus RN4220) | MIC P. aeruginosa PA01 (-) (P. aeruginosa PA01; cation-adjusted MHB) | further results
GTFWKAVGAGALIGGGAALLSKAFK[nh2] [nAMP-LP-18, nematode AMP-like peptide identified in four Meloidogyne species] | / (/ indicates that there was no activity at the highest concentration of peptide used (512μg/ml)) | / (/ indicates that there was no activity at the highest concentration of peptide used (512μg/ml)) | 64 µg/mL | 64 µg/mL | 64 µg/mL | / (/ indicates that there was no activity at the highest concentration of peptide used (512μg/ml)) | MIC E. faecalis JH2-2 (+), μM in brackets (E. faecalis JH2-2; [1]): 27 µM; MIC S. aureus EMRSA-15 (+), μM in brackets (S. aureus EMRSA-15; [3]): 27 µM; MIC S. aureus RN4220 (+), μM in brackets (S. aureus RN4220): 27 µM
CN[C@H](CC(C)C)C(=O)N[C@H]1C(=O)N[C@@H](CC(N)=O)C(=O)N[C@H]2C(=O)N[C@H]3C(=O)N[C@H](C(=O)N[C@H](C(=O)O)c4cc(O)cc(O)c4-c4cc3ccc4O)[C@H](O)c3ccc(c(Cl)c3)Oc3cc2cc(c3O[C@@H]2O[C@H](CO)[C@@H](O)[C@H](O)[C@H]2O[C@H]2C[C@](C)(N)[C@H](O)[C@H](C)O2)Oc2ccc(cc2Cl)[C@H]1O [Vancomycin hydrochloride, reference compound] |  |  | 2 µg/mL | 2 µg/mL | 1 µg/mL |  | MIC (E. faecalis JH2-2; Enterococcus faecalis, JH22, read-out: MIC E. faecalis JH2-2 (+), μM in brackets): 1 µM; MIC (S. aureus EMRSA-15; Staphylococcus aureus, EMRSA15, read-out: MIC S. aureus EMRSA-15 (+), μM in brackets): 1 µM; MIC (S. aureus RN4220; Staphylococcus aureus, RN4220, read-out: MIC S. aureus RN4220 (+), μM in brackets): 0.7 µM
ISKFLKGAAIAGGLAVAGAVAYKAYKNYKKNQEQQAAATGRK [nAMP-LP-11, nematode AMP-like peptide selected for synthesis and MIC screening] | / (/ indicates that there was no activity at the highest concentration of peptide used (512μg/ml)) | / (/ indicates that there was no activity at the highest concentration of peptide used (512μg/ml)) | / (/ indicates that there was no activity at the highest concentration of peptide used (512μg/ml)) | / (/ indicates that there was no activity at the highest concentration of peptide used (512μg/ml)) | / (/ indicates that there was no activity at the highest concentration of peptide used (512μg/ml)) | / (/ indicates that there was no activity at the highest concentration of peptide used (512μg/ml)) | 
EYLRKVKDAGAGKAKGGGAPGAESKSGKKSGSAETAASGGAKKGKKK [nAMP-LP-98, nematode AMP-like peptide selected for synthesis and MIC screening] | / (/ indicates that there was no activity at the highest concentration of peptide used (512μg/ml)) | / (/ indicates that there was no activity at the highest concentration of peptide used (512μg/ml)) | / (/ indicates that there was no activity at the highest concentration of peptide used (512μg/ml)) | / (/ indicates that there was no activity at the highest concentration of peptide used (512μg/ml)) | / (/ indicates that there was no activity at the highest concentration of peptide used (512μg/ml)) | / (/ indicates that there was no activity at the highest concentration of peptide used (512μg/ml)) | 
O=C(O)c1cn(C2CC2)c2cc(N3CCNCC3)c(F)cc2c1=O [Ciprofloxacin, reference compound] | 0.0625 µg/mL (≈ 0.189 µM) | 1 µg/mL (≈ 3.02 µM) |  |  |  | 0.5 µg/mL (≈ 1.51 µM) | MIC (E. coli K12; Escherichia coli, K12, cation-adjusted MHB): 0.2 µM (≈ 0.0663 µg/mL); MIC (A. baumannii DSM 30007; Acinetobacter baumannii, DSM30007, cation-adjusted MHB): 3 µM (≈ 0.994 µg/mL); MIC (P. aeruginosa PA01; Pseudomonas aeruginosa, PA01, cation-adjusted MHB): 2 µM (≈ 0.663 µg/mL)
DGCPKRVAIAVLKAPYKIFKKEANKGLFKLADKIHGVRY [fAMP-LP-123, flatworm AMP-like peptide selected for synthesis and MIC screening] | / (/ indicates that there was no activity at the highest concentration of peptide used (512μg/ml)) | / (/ indicates that there was no activity at the highest concentration of peptide used (512μg/ml)) | / (/ indicates that there was no activity at the highest concentration of peptide used (512μg/ml)) | / (/ indicates that there was no activity at the highest concentration of peptide used (512μg/ml)) |  | / (/ indicates that there was no activity at the highest concentration of peptide used (512μg/ml)) | 
GAGRWRANRRANRRRFARRLRRNQRRAAQKRRAHARRHQRNLRRAARKIRRIQRR[nh2] (GAGRWRANRRANRRRFARRLRRNQRRAAQKRRAHARRHQRNLRRAARKIRRIQRR-NH2) [nAMP-LP-298, arginine-rich nematode AMP-like peptide conserved across four Clade 9/V gastrointestinal parasites] | 64 µg/mL | 32 µg/mL | 64 µg/mL | 64 µg/mL | 32 µg/mL | 64 µg/mL | MIC (E. coli K12; cation-adjusted MHB): 9 µM; MIC (A. baumannii DSM 30007; cation-adjusted MHB): 5 µM; MIC E. faecalis JH2-2 (+), μM in brackets (E. faecalis JH2-2; [1]): 9 µM; MIC S. aureus EMRSA-15 (+), μM in brackets (S. aureus EMRSA-15; [3]): 9 µM; MIC S. aureus RN4220 (+), μM in brackets (S. aureus RN4220): 5 µM; MIC (P. aeruginosa PA01; cation-adjusted MHB): 9 µM
FGYWSGGGHGGGHGIHGGGGGHHGWH [nAMP-LP-235, nematode AMP-like peptide selected for synthesis and MIC screening] | / (/ indicates that there was no activity at the highest concentration of peptide used (512μg/ml)) | / (/ indicates that there was no activity at the highest concentration of peptide used (512μg/ml)) | / (/ indicates that there was no activity at the highest concentration of peptide used (512μg/ml)) | / (/ indicates that there was no activity at the highest concentration of peptide used (512μg/ml)) | / (/ indicates that there was no activity at the highest concentration of peptide used (512μg/ml)) | / (/ indicates that there was no activity at the highest concentration of peptide used (512μg/ml)) | 
QWWGGRGGGRWRGGWRGGWRGRGRGWW [nAMP-LP-104] |  |  |  |  | 256 µg/mL |  | MIC E. faecalis JH2-2 (+) (E. faecalis JH2-2; JH2-2): 256 µg/mL; MIC S. aureus EMRSA-15 (+) (S. aureus EMRSA-15; EMRSA-15): 256 µg/mL
